#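 Results reflect a 48-hour exposure of cells in 96-well plates to compound at five concentrations. The concentration for 50% growth inhibition is given as GI50.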 The source made the active and inactive calls. Cut-off read from the data, not from the text of the source: active = GI50 up to about 1.1 µM and inactive = higher.
# What was measured:
# Assay in all cases: NCI tumour cell line growth inhibition, 48 h
# UACC-62 = system: UACC-62
# K562 = system: K562
# U-251 = system: U-251
# Malme-3M = system: Malme-3M
# SNB-19 = system: SNB-19
# NCI-H522 = system: NCI-H522
# RPMI-8226 = system: RPMI-8226
# NCI-H23 = system: NCI-H23
# ACHN = system: ACHN
# UACC-257 = system: UACC-257
# CCRF-CEM = system: CCRF-CEM
# TK-10 = system: TK-10
# NCI-H226 = system: NCI-H226
# HOP-92 = system: HOP-92
# HCC 2998 = system: HCC 2998
# CAKI-1 = system: CAKI-1
# HCT-15 = system: HCT-15
# SNB-75 = system: SNB-75
# RXF 393 = system: RXF 393
SMILES,GI50 (UACC-62),GI50 (K562),GI50 (U-251),GI50 (Malme-3M),GI50 (SNB-19),GI50 (NCI-H522),GI50 (RPMI-8226),GI50 (NCI-H23),GI50 (ACHN),GI50 (UACC-257),GI50 (CCRF-CEM),GI50 (TK-10),GI50 (NCI-H226),GI50 (HOP-92),GI50 (HCC 2998),GI50 (CAKI-1),GI50 (HCT-15) [µM],GI50 (SNB-75),GI50 (RXF 393)
COC(=O)C(=O)C(C(=O)C=C(C)C)C(=O)C(=O)Nc1ccc(Cl)cc1C (stereo unspecified),> 100 µM (inactive),71.8 µM (inactive),> 100 µM (inactive),> 100 µM (inactive),> 100 µM (inactive),69.2 µM (inactive),70 µM (inactive),> 100 µM (inactive),> 100 µM (inactive),> 100 µM (inactive),87.5 µM (inactive),> 100 µM (inactive),> 100 µM (inactive),> 100 µM (inactive),> 100 µM (inactive),> 100 µM (inactive),> 100,> 100 µM (inactive),> 100 µM (inactive)
C/C(=N\Nc1ccccc1)c1sc(-c2nc(C)c(/C(C)=N/Nc3ccccc3)s2)nc1C,4.07 µM (inactive),7.36 µM (inactive),37.1 µM (inactive),16.1 µM (inactive),> 63.1 µM (inactive),18.1 µM (inactive),12.6 µM (inactive),32.7 µM (inactive),10.4 µM (inactive),35.1 µM (inactive),28.3 µM (inactive),80.9 µM (inactive),40.4 µM (inactive),10.4 µM (inactive),7.93 µM (inactive),> 58.2 µM (inactive),11.4,23.4 µM (inactive),22.8 µM (inactive)
O=c1[nH]c(-c2ccccc2)nc2ccc(Cl)cc12,–,26.9 µM (inactive),> 100 µM (inactive),48.6 µM (inactive),79.3 µM (inactive),20.5 µM (inactive),33.2 µM (inactive),77.4 µM (inactive),73.1 µM (inactive),42.4 µM (inactive),–,35.2 µM (inactive),> 100 µM (inactive),16.5 µM (inactive),> 100 µM (inactive),20.9 µM (inactive),35.7,–,20 µM (inactive)
O=C(CCN1CCCCC1CCO)Nc1ccc2c(c1)C(=O)c1ccc(NC(=O)CCN3CCCCC3CCO)cc1C2=O (stereo unspecified),2.44 µM (inactive),3.85 µM (inactive),4.08 µM (inactive),2.64 µM (inactive),6.07 µM (inactive),2.16 µM (inactive),4.45 µM (inactive),15 µM (inactive),7.93 µM (inactive),5.33 µM (inactive),2.62 µM (inactive),3.1 µM (inactive),5.71 µM (inactive),13.2 µM (inactive),0.0418 µM (active),23.7 µM (inactive),11.2,2.81 µM (inactive),2.12 µM (inactive)
CC1(C)C2CCC13C(=O)C1OC3(C2)C2C(=O)N(c3ccccc3)C(=O)C12 (stereo unspecified),> 100 µM (inactive),> 100 µM (inactive),> 100 µM (inactive),> 100 µM (inactive),> 100 µM (inactive),20.1 µM (inactive),> 100 µM (inactive),38.1 µM (inactive),> 100 µM (inactive),> 100 µM (inactive),> 100 µM (inactive),> 100 µM (inactive),> 100 µM (inactive),–,> 100 µM (inactive),> 100 µM (inactive),> 100,> 100 µM (inactive),> 100 µM (inactive)
N=C(c1ccccc1)N1CCCCC1,–,–,> 100 µM (inactive),49 µM (inactive),> 100 µM (inactive),> 100 µM (inactive),–,> 100 µM (inactive),–,> 100 µM (inactive),–,> 100 µM (inactive),> 100 µM (inactive),< 0.01 µM (active),> 100 µM (inactive),> 100 µM (inactive),–,> 100 µM (inactive),> 100 µM (inactive)
COc1cc(Nc2cnc3ccc(N)cc3n2)cc(OC)c1OC,69.3 µM (inactive),18.5 µM (inactive),> 100 µM (inactive),> 65.2 µM (inactive),> 100 µM (inactive),50.1 µM (inactive),16.6 µM (inactive),98.6 µM (inactive),> 100 µM (inactive),> 57 µM (inactive),19.8 µM (inactive),> 83.6 µM (inactive),> 100 µM (inactive),61.2 µM (inactive),> 100 µM (inactive),59.2 µM (inactive),69.2,49.3 µM (inactive),45.3 µM (inactive)
C/C=C(/CCC1NCCC2c3ccccc3NC12)[Si](C)(C)C (stereo unspecified),13.5 µM (inactive),2.75 µM (inactive),12.8 µM (inactive),–,15.5 µM (inactive),16 µM (inactive),2.84 µM (inactive),13.8 µM (inactive),14.2 µM (inactive),4.38 µM (inactive),3.6 µM (inactive),15 µM (inactive),13.3 µM (inactive),5.58 µM (inactive),2.02 µM (inactive),10.8 µM (inactive),12.4,9.73 µM (inactive),6.53 µM (inactive)
